Paper PMC5354814, “In silico and in vitro drug screening identifies new therapeutic approaches for Ewing sarcoma” (Oncotarget, 2016)
Where two headings read alike, the source gives them in different places.

How the values were obtained:
human lymphocytes = tested on: human lymphocytes; parameters: method as in ref 19 (a number printed in a supplementary file, which may have a reference list of its own: not looked up in the article's list); details: 1.25 µg auranofin/mL; cited from earlier work
[1] = parameters: method as in ref 19 (a number printed in a supplementary file, which may have a reference list of its own: not looked up in the article's list); details: cited from earlier work
[2] = parameters: method as in ref 19 (a number printed in a supplementary file, which may have a reference list of its own: not looked up in the article's list); details: 5 and 10 mg gold/kg p.o.; cited from earlier work
A673 cells = assay: siRNA silencing of EWS-FLI1 followed by auranofin treatment (CellTiter-Blue); assay type: cell-based; details: then auranofin 72 h
Description: To knock down the expression of EWS-FLI1 in A673 Ewing cells, we designed two different siRNAs, corresponding to the sequence within the 3′ downstream half of EWS-FLI1 mRNA (siFLI1-#3) and the sequence of the breakpoint of EWS-FLI1 type I mRNA (siBPEF1) respectively. To examine whether the siRNAs could abolish the expression of EWS-FLI1, the effects of siRNAs on the protein levels of EWS-FLI1 were analyzed by western blot (see Supplementary methods).
(B) Cell viability was assessed by the CellTiter Blue assay in A673 cells treated by siControl, siFLI1-#3 or siBPEF1 for 48 h then followed by the incubation of auranofin ranging from 7.8 nmol/L to 1 μmol/L for 72h. Data are presented as the mean ± SD of three independent experiments performed in triplicate. (C) In vivo studies of auranofin, ganetespib and the combination treatment in an EWS xenograft mice model (n = 12 per group). The percentage of survival rate in control, auranofin treated, ganetespib treated, and auranofin in combination with ganetespib treated groups.
Predict drugs using three computational resolved on the 4–20% Mini-PROTEAN TGXTM approaches Precast Gels (Bio-Rad, Hercules, CA) and transferred onto PVDF membranes (Bio-Rad, Hercules, CA).
Disease-based approach: We used the disease Immunoblotting was done with the following antibodies: signature to query the drug expression database and rabbit polyclonal anti-FLI1 (C-19) (Santa Cruz selected the top 20 negatively scored hits. siRNA-based Biotechnology, Dallas, TX), mouse monoclonal anti-approach: We used the siEWS-FLI1 mediated signature β-actin (Sigma, St. Louis, MO), HRP conjugated goat to query the drug expression database and selected the top anti-rabbit IgG (Cell Signaling, Danvers, MA) and 20 positively scored hits. […] Membranes were developed using ECL database and select the top 20 negatively scored hits. […]
(Lafayette, CO). […] After 72 h of auranofin treatment, cell viability was evaluated using the 18. […]

[3] = parameters: method as in ref 19 (a number printed in a supplementary file, which may have a reference list of its own: not looked up in the article's list); details: rats, 2 - 40 mg auranofin/kg p.o.; cited from earlier work

Compound: CC(=O)OC[C@H]1O[C@@H]([S-])[C@H](OC(C)=O)[C@@H](OC(C)=O)[C@@H]1OC(C)=O.CCP(CC)CC.[Au+] [Auranofin, auranofin]
- ADCC of human lymphocytes (human lymphocytes): reduced
- tissue gold concentration ([1]; rat tissues): highest in the kidneys
- absorption after oral dosing ([1]; rat): 19%
- blood gold in plasma proteins ([1]; rat): 35%
- blood gold in red blood cells ([1]; rat): 65%
- urinary excretion ([1]; rat): 10%
- elimination in feces ([1]; single oral dose, within 21 days, rat): 79%
- low-grade oxazolone-induced contact sensitivity [2]: stimulated
- IC50 (A673 cells; siBPEF1 48 h, read-out: IC50 (siBPEF1)): > 1000 nM
- IC50 (A673 cells; siControl 48 h, read-out: IC50 (siControl)): 270 ± 20 nM
- IC50 (A673 cells; siFLI1-#3 48 h, read-out: IC50 (siFLI1-#3)): > 1000 nM
- antidiuretic effect [3]: slight antidiuretic effect
